In ChEMBL document CHEMBL3046226, “Novel glycol benzyl ether herbicides: Herbicidal activity of 3,3a,5,9b-tetrahydro-2H-furo[3,2-c][2]benzopyran derivatives” (2006):
In brackets after ≈: the same amount, converted by molar mass.

Legend:
Format in all cases: functional
Oryza sativa [1] = test: Phytotoxicity in Oryza sativa (rice) assessed as assessed as growth rate at 10 g/acre by Oryza sativa (rice) injury assay
Echinochloa crus-galli [2] = test: Herbicidal activity against Echinochloa crus-galli (barnyard grass) assessed as growth rate at 30 g/acre
Echinochloa crus-galli [3] = test: Herbicidal activity against Echinochloa crus-galli (barnyard grass) assessed as growth rate at 3 g/acre
Oryza sativa [4] = test: Phytotoxicity in Oryza sativa (rice) assessed as assessed as growth rate at 30 g/acre by Oryza sativa (rice) injury assay
Echinochloa crus-galli [5] = test: Herbicidal activity against Echinochloa crus-galli (barnyard grass) assessed as growth rate at 1 g/acre
Echinochloa crus-galli [6] = test: Herbicidal activity against Echinochloa crus-galli (barnyard grass)

Structure (SMILES)	Activity (Oryza sativa [1]) [%]	Activity (Echinochloa crus-galli [2]) [%]	Activity (Echinochloa crus-galli [3]) [%]	Activity (Oryza sativa [4]) [%]	Activity (Echinochloa crus-galli [5]) [%]	MIC (Echinochloa crus-galli [6]) [µg/mL]
CC[C@H]1O[C@@H]2c3ccccc3CO[C@@H]2[C@H]1OCc1ccsc1	91	0	71	91	91	0.3 (≈ 0.948 µM)
CC[C@H]1O[C@@H]2c3ccccc3CO[C@@H]2[C@H]1OCc1ccc2ccccc2c1	91	91	91	91	91	> 10
CC[C@H]1O[C@@H]2c3ccccc3CO[C@@H]2[C@H]1OCc1cccc2ccccc12	91	91	91	91	91	10 (≈ 27.7 µM)
CC[C@H]1O[C@@H]2c3ccccc3CO[C@@H]2[C@H]1OCC1CCCCC1	91	11	91	91	–	10 (≈ 31.6 µM)
CC[C@H]1O[C@@H]2c3ccccc3CO[C@@H]2[C@H]1OC(=O)c1ccccc1	91	6	91	91	–	3.3 (≈ 10.2 µM)
CC[C@H]1O[C@@H]2c3ccccc3CO[C@@H]2[C@H]1OC(C)=O	91	91	91	91	91	80 (≈ 305 µM)
CC[C@H]1O[C@@H]2c3ccccc3CO[C@@H]2[C@H]1O[Si](C)(C)C(C)(C)C	91	91	91	91	91	> 100
CC[C@H]1O[C@@H]2c3ccccc3[C@H](C)O[C@@H]2[C@H]1OCc1ccccc1F	11	0	0	0	0	0.2 (≈ 0.584 µM)
CC[C@H]1O[C@@H]2c3ccccc3[C@@H](C)O[C@@H]2[C@H]1OCc1ccccc1F	91	0	6	0	11	0.7 (≈ 2.04 µM)
CC[C@@H]1O[C@@H]2[C@@H](OCc3ccccc3F)[C@@H](CC)O[C@@H]2c2ccccc21	–	0	11	0	91	0.4 (≈ 1.12 µM)
CC[C@H]1O[C@@H]2[C@@H](OCc3ccccc3F)[C@@H](CC)O[C@@H]2c2ccccc21	–	0	91	71	91	0.8 (≈ 2.24 µM)
CC[C@H]1O[C@@H]2c3ccccc3C(C)(CBr)O[C@@H]2[C@H]1OCc1ccccc1F (stereo not given in full)	91	0	71	91	–	> 3
CC[C@H]1O[C@@H]2c3ccccc3C(C)O[C@@H]2[C@H]1OCc1ccccc1C (stereo not given in full)	11	0	0	11	6	0.2 (≈ 0.591 µM)
CC[C@H]1O[C@@H]2c3ccccc3C(=O)O[C@@H]2[C@H]1OCc1ccccc1C	91	11	–	91	–	3 (≈ 8.87 µM)
CC[C@H]1O[C@@H]2C[C@](C)(c3ccccc3)O[C@@H]2[C@H]1OCc1ccccc1F	91	0	6	6	–	0.1 (≈ 0.281 µM)
CC[C@H]1O[C@@H]2c3sccc3CO[C@@H]2[C@H]1OCc1ccccc1F	6	0	0	0	6	0.1 (≈ 0.299 µM)
CC[C@H]1O[C@@H]2c3ccsc3CO[C@@H]2[C@H]1OCc1ccccc1F	91	0	0	91	6	0.3 (≈ 0.897 µM)

Structure (SMILES)	Activity (Oryza sativa [1]) [%]	Activity (Echinochloa crus-galli [2]) [%]	Activity (Echinochloa crus-galli [3]) [%]	Activity (Oryza sativa [4]) [%]	Activity (Echinochloa crus-galli [5]) [%]	MIC (Echinochloa crus-galli [6]) [µg/mL]
CC[C@H]1O[C@@H]2c3ccsc3CO[C@@H]2[C@H]1OCc1ccccc1C	91	0	11	91	–	0.7 (≈ 2.12 µM)
CC[C@H]1O[C@@H]2c3occc3CO[C@@H]2[C@H]1OCc1ccccc1C	91	6	41	71	91	0.2 (≈ 0.636 µM)
CC[C@H]1O[C@@H]2c3ccccc3CO[C@@H]2[C@H]1O	91	91	91	91	91	–
CC[C@H]1O[C@@H]2c3ccccc3CO[C@@H]2[C@H]1OCc1ccccc1	11	0	6	0	11	0.4 (≈ 1.29 µM)
CC[C@H]1O[C@@H]2c3ccccc3CO[C@@H]2[C@H]1OCc1ccccc1F	71	0	6	11	11	0.2 (≈ 0.609 µM)
CC[C@H]1O[C@@H]2c3ccccc3CO[C@@H]2[C@H]1OCc1cccc(F)c1	91	0	0	91	11	0.3 (≈ 0.914 µM)
CC[C@H]1O[C@@H]2c3ccccc3CO[C@@H]2[C@H]1OCc1ccc(F)cc1	91	0	0	71	11	1 (≈ 3.05 µM)
CC[C@H]1O[C@@H]2c3ccccc3CO[C@@H]2[C@H]1OCc1ccccc1Cl	91	0	6	91	–	0.2 (≈ 0.58 µM)
CC[C@H]1O[C@@H]2c3ccccc3CO[C@@H]2[C@H]1OCc1ccccc1C	11	0	0	0	11	0.4 (≈ 1.23 µM)
CCc1ccccc1CO[C@@H]1[C@H]2OCc3ccccc3[C@H]2O[C@@H]1CC	91	0	11	91	–	0.6 (≈ 1.77 µM)
CC[C@H]1O[C@@H]2c3ccccc3CO[C@@H]2[C@H]1OCc1ccccc1C#N	91	0	91	91	91	3.2 (≈ 9.54 µM)
CC[C@H]1O[C@@H]2c3ccccc3CO[C@@H]2[C@H]1OCc1ccccc1C(F)(F)F	91	0	71	91	91	0.4 (≈ 1.06 µM)
CC[C@H]1O[C@@H]2c3ccccc3CO[C@@H]2[C@H]1OC(C)c1ccccc1 (stereo not given in full)	91	0	41	91	–	3 (≈ 9.25 µM)
CC[C@H]1O[C@@H]2c3ccccc3CO[C@@H]2[C@H]1OC1CCc2ccccc21 (stereo not given in full)	91	0	41	91	–	0.3 (≈ 0.892 µM)
CC[C@H]1O[C@@H]2c3ccccc3CO[C@@H]2[C@H]1OCc1cccs1	91	0	11	91	91	0.8 (≈ 2.53 µM)
Cc1ccccc1CO[C@H]1C[C@]2(C(C)C)CC[C@@]1(C)O2 (relative stereo) [REL-CINMETHYLIN]	41	0	0	11	0	0.1 (≈ 0.364 µM)
CC[C@H]1O[C@@H]2c3sccc3COC2[C@H]1OCc1ccccc1C (single isomer, unassigned)	91	0	0	91	6	0.1 (≈ 0.303 µM)
